From patent EP1383510B1, “BISPHOSPHONATE CONJUGATES AND METHODS OF MAKING AND USING THE SAME” (priority 2001, dated 2002)

Key:
[1] = Binding of novel bisphosphonate conjugates on hydroxyapatite powder (UV spectra before/after treatment); conditions: pH 7.0
Protocol: To estimate the binding of NBC on hydroxyapatite (the mineral component of bone) UV spectra of NBC at pH7 were recorded before and after treatment with hydroxyapatite. […] The supernatant was separated and an absorption spectrum of the supernatant was recorded.

[2] = HPLC-analysis of hydrolytic stability of nucleotide-bisphosphonate conjugate in buffer; assay type: physicochemical
Protocol: (§1) HPLC-analysis of hydrolytic stability of conjugate VI, Fig. 2, in buffer and in human serum was carried out under the following conditions: column Nucleosil C-18 (30-C18), 0-4% triethylammonium acetate (0.1 M, pH6.8); 20 min, flow rate -1 ml/min. […] The stability of the conjugate was decreased in mouse/human serum as it is evidenced from data on Fig.3. However, the conjugate is stable enough to be delivered to a skeleton in intact form.

[3] = HPLC-analysis of stability of nucleotide-bisphosphonate conjugate in serum; assay type: in vitro ADME; conditions: mouse/human serum; Fig.3
Protocol: as §1

[4] = Biodistribution in rats of vitamin B6 - bisphosphonate conjugates in complex with 99mTc; assay type: in vivo; conditions: as complexing agent of the bone-scanning agent; general statement
Protocol: The probes were prepared with molar concentration of about 10^-3 molar at pH 6.5, with a molar ratio SnCl2 to a conjugate 1:10 and 1 m^cl/ml pertechnetate.
Male rats weighting […] were injected intravenously via the tail vein. The rats were sacrificed and dissected at selected times - 30 min., 60 min., and 120 min. The activity uptake in bone, blood, muscle, liver and spleen of each rat was measured. The results obtained indicate 40-45% of initial radioactivity injected was accumulated at bone skeleton after 60-90 min.

Row | SMILES | % of bound compound [1] | % of nonbound compound [1] | hydrolytic stability (stable for several hours) ([2]; buffer solution at pH 5-7, several hours) | stability of the conjugate in serum [3] | uptake in bone [4] | hydrolytic stability of the P-O-P bond ([2]; incubation either at pH >8.0 or at pH<3.0)
1 | O=c1[nH]c(=O)n(COCCOCCOP(=O)(O)CP(=O)(O)O)cc1F [II, Anhydride of 1-([2-{hydroxyethoxy}ethoxy]methylene)-5-fluorouracil and methylenediphosphonic acid] | 87,26% | 12,74% |  |  |  | 
2 | Cc1ncc(CO)c(CNC(P(=O)(O)O)P(=O)(O)O)c1O [(iv), 1 -(N-pyridoxyl amino) -methylen-1, 1 -bisphosphonic acid] | 100% | 0% |  |  |  | 
3 | Cc1ncc(COP(=O)(O)O)c(CNC(P(=O)(O)O)P(=O)(O)O)c1O [(iii), 1 - (N-[5 '-phospho] -pyridoxylamino)-methylene-1,1-bisphosphonic acid] | 100% | 0% |  |  |  | 
4 | Cc1ncc(CO)c(CNCCC(O)(P(=O)(O)O)P(=O)(O)O)c1O [(ii), 3-(N-pyridoxylamino) -1-hydroxypropyliden-1,1-bisphosphonic acid] | 100% | 0% |  |  | high and rapid uptake in bone | 

More lines, main results first:

Row | % of bound compound [1] | % of nonbound compound [1] | hydrolytic stability (stable for several hours) ([2]; buffer solution at pH 5-7, several hours) | stability of the conjugate in serum [3] | uptake in bone [4] | SMILES | hydrolytic stability of the P-O-P bond ([2]; incubation either at pH >8.0 or at pH<3.0)
5 | 88,68% | 11,32% |  |  |  | CC(O)(P(=O)(O)O)P(=O)(O)OP(=O)(O)OCC1OC(n2ccc(=O)[nH]c2=O)C(O)C1O (stereo not shown) [VII, Anhydride of uridine-5 '-monophosphoric acid and 1-hydroxyethylidene-1,1 diphosphonic acid] | 
6 | 69,66% | 30,34% | more than 97% | decreased |  | CC(O)(P(=O)(O)O)P(=O)(O)OP(=O)(O)OCC1OC(n2cc(F)c(=O)[nH]c2=O)C(O)C1O (stereo not shown) [VI, Anhydride of 5-fluorouridine-5'-monophosphoric acid and 1-hydroxyethylidene-1,1-bisphosphonic acid] | Hydrolytic cleavage of the conjugate P-O-P bond occurred
7 | 100% | 0% |  |  |  | Cc1ncc(COP(=O)(O)O)c(CNCCC(O)(P(=O)(O)O)P(=O)(O)O)c1O [(i), 3 - (N-[5 '-phospho] -pyridoxylamino) -1-hydroxypropyliden-1,1-bisphosphonic acid] | 
8 | 70,05% |  |  |  |  | O=c1[nH]c(=O)n(C2OC(COP(=O)(O)OP(=O)(O)CP(=O)(O)O)C(O)C2O)cc1F (stereo not shown) [III, Anhydride of 5-fluorouridine-5'-monophosphoric acid and methylenediphosphonic acid] | 
